Laboratory results reported in PubChem BioAssay AID248 (DTP/NCI, 2004).
Where “and” joins values, the source holds several entries; their conditions need not be identical. Equal values may be shown once. Inconclusive results and toxic doses are left out. Rule as the data show it: active = T/C of 150% or more; inactive = T/C below 125%.

Test system: L1210 leukemia ip in BDF1 mice, survival T/C
Assay: NCI In Vivo Anticancer Drug Screen. Data for tumor model L1210 Leukemia (intraperitoneal) in B6D2F1 (BDF1) mice
Details: endpoint: mean survival time, higher = longer survival
Method in brief: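 Value reflects the ratio of survival in compound-treated mice to survival in vehicle-treated controls, with both groups carrying the same transplanted tumor.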

[1] = dose: 100.0 mg/kg/injection, schedule: Q01DX001 (ip), vehicle: saline
[2] = dose: 200.0 mg/kg/injection, schedule: Q01DX001 (ip), vehicle: saline
[3] = dose: 400.0 mg/kg/injection, schedule: Q01DX001 (ip), vehicle: saline
[4] = dose: 75.0 mg/kg/injection, schedule: Q01DX001 (ip), vehicle: saline
[5] = dose: 150.0 mg/kg/injection, schedule: Q01DX001 (ip), vehicle: saline
[6] = dose: 50.0 mg/kg/injection, schedule: Q01DX009 (ip), vehicle: saline with Tween-80
[7] = dose: 100.0 mg/kg/injection, schedule: Q01DX009 (ip), vehicle: saline with Tween-80
[8] = dose: 200.0 mg/kg/injection, schedule: Q01DX009 (ip), vehicle: saline with Tween-80
[9] = dose: 300.0 mg/kg/injection, schedule: Q04DX003 (ip), vehicle: saline with Tween-80
[10] = dose: 50.0 mg/kg/injection, schedule: Q01DX001 (ip), vehicle: carboxymethylcellulose (CMC)
[11] = dose: 100.0 mg/kg/injection, schedule: Q01DX001 (ip), vehicle: carboxymethylcellulose (CMC)
[12] = dose: 200.0 mg/kg/injection, schedule: Q01DX001 (ip), vehicle: carboxymethylcellulose (CMC)
[13] = dose: 25.0 mg/kg/injection, schedule: Q01DX009 (ip), vehicle: saline with Tween-80
[14] = dose: 50.0 mg/kg/injection, schedule: Q04DX003 (ip), vehicle: saline
[15] = dose: 100.0 mg/kg/injection, schedule: Q04DX003 (ip), vehicle: saline

Measured: T/C

O=C(O)CC1CCCNC1 (stereo unspecified)
inactive: dose: 75.0 mg/kg/injection, schedule: Q04DX003 (ip), vehicle: saline 100 % of control | dose: 150.0 mg/kg/injection, schedule: Q04DX003 (ip), vehicle: saline 103 % of control | dose: 300.0 mg/kg/injection, schedule: Q04DX003 (ip), vehicle: saline 101 % of control

CCCCOC(=O)CCCCC(=O)OC(C)C(=O)OCCCC (stereo unspecified)
inactive: [1] 102 % of control | [2] 102 % of control | [3] 89 % of control

C[N+]1(C2CCC3CCCC2C3=O)CCCC1 (stereo unspecified)
inactive: [4] 98 % of control | [5] 106 % of control

CC1Cc2cccc3cc4c(ccc5ccccc54)c1c23 (stereo unspecified)
inactive: dose: 100.0 mg/kg/injection, schedule: Q01DX001 (ip), vehicle: Klucel (hydroxypropylcellulose) (HPC) 98 % of control and 104 % of control | dose: 200.0 mg/kg/injection, schedule: Q01DX001 (ip), vehicle: Klucel (hydroxypropylcellulose) (HPC) 97 % of control and 103 % of control | dose: 400.0 mg/kg/injection, schedule: Q01DX001 (ip), vehicle: Klucel (hydroxypropylcellulose) (HPC) 95 % of control and 110 % of control

C=C(Br)CNC(=O)C(=O)OCC
inactive: [6] 97 % of control | [7] 94 % of control | dose: 132.0 mg/kg/injection, schedule: Q04DX003 (ip), vehicle: saline with Tween-80 93 % of control | [8] 97 % of control | dose: 200.0 mg/kg/injection, schedule: Q04DX003 (ip), vehicle: saline with Tween-80 90 % of control | [9] 96 % of control

Cc1cccc(N(CCOC(=O)Nc2ccc(Cl)cc2)CCOC(=O)Nc2ccc(Cl)cc2)c1
inactive: [1] 94 % of control | [2] 94 % of control | [3] 96 % of control

CCOC(=O)CCCCCCCCCCNC(=O)NCc1ccccc1
inactive: dose: 100.0 mg/kg/injection, schedule: Q04DX002 (ip), vehicle: saline with Tween-80 90 % of control | dose: 200.0 mg/kg/injection, schedule: Q04DX002 (ip), vehicle: saline with Tween-80 87 % of control | dose: 400.0 mg/kg/injection, schedule: Q04DX002 (ip), vehicle: saline with Tween-80 97 % of control

CCCP(=S)(C(C)C)C(C)C
inactive: dose: 100.0 mg/kg/injection, schedule: Q04DX003 (ip), vehicle: saline with Tween-80 103 % of control

CC1CC(C)(C)NC(C2CCC=CO2)N1 (stereo unspecified)
inactive: dose: 44.0 mg/kg/injection, schedule: Q01DX Z (ip), vehicle: saline 115 % of control | dose: 100.0 mg/kg/injection, schedule: Q01DX Z (ip), vehicle: saline 107 % of control

CCOC(=O)C1CCc2c(ccc3ccccc23)N1 (stereo unspecified)
inactive: [10] 100 % of control | dose: 50.0 mg/kg/injection, schedule: Q01DX009 (ip), vehicle: carboxymethylcellulose (CMC) 102 % of control and 91 % of control | dose: 50.0 mg/kg/injection, schedule: Q04DX002 (ip), vehicle: carboxymethylcellulose (CMC) 100 % of control and 106 % of control | dose: 50.0 mg/kg/injection, schedule: Q04DX003 (ip), vehicle: carboxymethylcellulose (CMC) 105 % of control | [11] 105 % of control | dose: 100.0 mg/kg/injection, schedule: Q01DX009 (ip), vehicle: carboxymethylcellulose (CMC) 94 % of control and 112 % of control | dose: 100.0 mg/kg/injection, schedule: Q04DX002 (ip), vehicle: carboxymethylcellulose (CMC) 100 % of control and 106 % of control | dose: 100.0 mg/kg/injection, schedule: Q04DX003 (ip), vehicle: carboxymethylcellulose (CMC) 107 % of control | [12] 103 % of control | dose: 200.0 mg/kg/injection, schedule: Q01DX009 (ip), vehicle: carboxymethylcellulose (CMC) 94 % of control and 102 % of control | dose: 200.0 mg/kg/injection, schedule: Q04DX002 (ip), vehicle: carboxymethylcellulose (CMC) 97 % of control and 102 % of control | dose: 200.0 mg/kg/injection, schedule: Q04DX003 (ip), vehicle: carboxymethylcellulose (CMC) 96 % of control

O=C(C1C(c2ccccc2)N1Cc1ccccc1)C1C(c2ccccc2)N1Cc1ccccc1 (stereo unspecified)
inactive: dose: 75.0 mg/kg/injection, schedule: Q01DX001 (ip), vehicle: Klucel (hydroxypropylcellulose) (HPC) 101 % of control | dose: 150.0 mg/kg/injection, schedule: Q01DX001 (ip), vehicle: Klucel (hydroxypropylcellulose) (HPC) 88 % of control | dose: 300.0 mg/kg/injection, schedule: Q01DX001 (ip), vehicle: Klucel (hydroxypropylcellulose) (HPC) 93 % of control

Cc1ccc(C)c(CCC(C)CCCC(C)C)c1 (stereo unspecified)
inactive: [1] 97 % of control | [2] 104 % of control

O=C1CC(Cl)C(=O)N1c1ccccc1 (stereo unspecified)
inactive: dose: 75.0 mg/kg/injection, schedule: Q01DX009 (ip), vehicle: saline with Tween-80 112 % of control | dose: 75.0 mg/kg/injection, schedule: Q04DX003 (ip), vehicle: saline with Tween-80 96 % of control | dose: 150.0 mg/kg/injection, schedule: Q01DX009 (ip), vehicle: saline with Tween-80 102 % of control | dose: 150.0 mg/kg/injection, schedule: Q04DX003 (ip), vehicle: saline with Tween-80 102 % of control | [9] 101 % of control

NC(CSS(=O)(=O)O)=NC1CCCC1
inactive: dose: 12.5 mg/kg/injection, schedule: Q01DX001 (ip), vehicle: carboxymethylcellulose (CMC) 107 % of control | dose: 25.0 mg/kg/injection, schedule: Q01DX001 (ip), vehicle: carboxymethylcellulose (CMC) 101 % of control | [10] 102 % of control

Nc1cccc(OCCOc2cccc(S(=O)(=O)F)c2)c1
inactive: [1] 95 % of control | [2] 93 % of control | [3] 90 % of control

CNC(=O)c1nc(C)c(C)[nH]c1=O
inactive: dose: 25.0 mg/kg/injection, schedule: Q01DX009 (ip), vehicle: water 98 % of control | dose: 50.0 mg/kg/injection, schedule: Q01DX009 (ip), vehicle: water 96 % of control | dose: 100.0 mg/kg/injection, schedule: Q01DX009 (ip), vehicle: water 98 % of control | dose: 100.0 mg/kg/injection, schedule: Q04DX003 (ip), vehicle: water 103 % of control | dose: 200.0 mg/kg/injection, schedule: Q01DX009 (ip), vehicle: water 89 % of control | dose: 200.0 mg/kg/injection, schedule: Q04DX003 (ip), vehicle: water 95 % of control

O=C(O)c1c[nH]c2c(Cl)cccc2c1=O
inactive: dose: 100.0 mg/kg/injection, schedule: Q04DX002 (ip), vehicle: Klucel (hydroxypropylcellulose) (HPC) 100 % of control | dose: 200.0 mg/kg/injection, schedule: Q04DX002 (ip), vehicle: Klucel (hydroxypropylcellulose) (HPC) 96 % of control | dose: 400.0 mg/kg/injection, schedule: Q04DX002 (ip), vehicle: Klucel (hydroxypropylcellulose) (HPC) 107 % of control

CCOC(=O)C(=O)Nc1ccc(Cl)cc1
inactive: dose: 100.0 mg/kg/injection, schedule: Q01DX001 (ip), vehicle: saline with Tween-80 96 % of control | dose: 200.0 mg/kg/injection, schedule: Q01DX001 (ip), vehicle: saline with Tween-80 96 % of control | dose: 400.0 mg/kg/injection, schedule: Q01DX001 (ip), vehicle: saline with Tween-80 95 % of control

CCCCCCCC(C(=O)OCC)C(=O)OCC
inactive: [11] 103 % of control | [12] 100 % of control | dose: 400.0 mg/kg/injection, schedule: Q01DX001 (ip), vehicle: carboxymethylcellulose (CMC) 100 % of control

CC(=O)Nc1cc(Cl)ccc1C
inactive: [13] 93 % of control | [6] 90 % of control | [14] 95 % of control | [7] 89 % of control | [15] 97 % of control | dose: 200.0 mg/kg/injection, schedule: Q04DX003 (ip), vehicle: saline 100 % of control

CCOC(=O)C=C1CCN(C)CC1
inactive: [6] 104 % of control | [4] 97 % of control | [7] 98 % of control | [5] 103 % of control | [8] 97 % of control | dose: 300.0 mg/kg/injection, schedule: Q01DX001 (ip), vehicle: saline 101 % of control

Nc1c(Cl)cc(S(=O)(=O)O)cc1Br
inactive: dose: 50.0 mg/kg/injection, schedule: Q01DX001 (ip), vehicle: saline 101 % of control | [1] 103 % of control | [2] 101 % of control | [3] 101 % of control

CCOC(=O)c1ccc(NC(=O)Nc2ccc(OC)c([N+](=O)[O-])c2)cc1
inactive: [7] 95 % of control | [8] 90 % of control

Cc1cccc2c1SCCC2=O
inactive: [1] 92 % of control | [2] 92 % of control | [3] 89 % of control

c1ccc(C2=NCCCO2)cc1
inactive: dose: 12.5 mg/kg/injection, schedule: Q01DX009 (ip), vehicle: saline with Tween-80 100 % of control | [13] 103 % of control | [6] 102 % of control | [14] 91 % of control | [7] 102 % of control | [15] 96 % of control
